According to patent publication US20070092527A1, “Proton-sensing g-protein coupled receptors and dna sequences thereof” (NOVARTIS AG, priority 2003, published 2007):
One block for each compound: values may come before it.

Columns and labels:
OGR1 [1] = biological target: T1, OGR1 (Homo sapiens, UniProt Q15743); assay: Inositol phosphate (IP) formation assay, cells expressing OGR1; format: cell-based; details: for Inhibition of OGR1-dependent IP formation: stimulated at pH 6.9, micromolar concentrations
T1 construct: His; expressed in transfected cells
Target sequence in this assay (Q15743 whole entry): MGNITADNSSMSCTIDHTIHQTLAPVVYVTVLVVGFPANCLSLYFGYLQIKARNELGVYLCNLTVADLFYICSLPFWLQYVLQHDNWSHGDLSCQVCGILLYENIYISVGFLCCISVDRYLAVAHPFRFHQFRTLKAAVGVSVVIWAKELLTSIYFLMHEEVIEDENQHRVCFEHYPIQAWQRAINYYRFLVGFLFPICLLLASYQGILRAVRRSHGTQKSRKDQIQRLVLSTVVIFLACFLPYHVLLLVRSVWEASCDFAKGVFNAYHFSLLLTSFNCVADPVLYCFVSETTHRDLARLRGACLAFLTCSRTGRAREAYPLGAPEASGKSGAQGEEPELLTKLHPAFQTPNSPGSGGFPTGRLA

[2] = tested on: MG63 human osteosarcoma cells; assay: IP formation in MG63 human osteosarcoma cells (endogenous OGR1 mRNA); format: cell-based
[3] = tested on: thrombin-stimulated IP formation (endogenous receptors in CCL39 cells); assay: Thrombin-stimulated IP formation in CCL39 cells; format: cell-based, hamster; details: for Effect on thrombin-stimulated IP formation: control CCL39 cells
Human TDAG8 [4] = biological target: T2, Human TDAG8 (Homo sapiens, UniProt Q8IYL9); assay: cAMP formation assay, TDAG8; format: cell-based; details: TDAG8
T2 construct: His; expressed in transfected cells; host or cells: CCL39 (cAMP formation); CCL39 CRE-luc (luciferase reporter)
Method: (§1) Stable cell lines expressing TDAG8 are generated in either CCL39 cells or in CCL39 CRE-luc cells which stably express a cAMP-dependent luciferase reporter to detect changes in cAMP in response to ligand. Stable cell lines are generated In the above cell lines by transfecting the TDAG8 cDNA expression construct using Effectene (Qiagen, Basel, Switzerland) according to the manufacturers protocol. Transfected cells are selected in the presence of 400 μg/ml of G418. After 3 weeks of antibiotic selection, individual clones are picked and expanded for further analysis.

Human GPR4 [5] = biological target: T3, Human GPR4 (Homo sapiens, UniProt P46093); assay: cAMP formation assay, GPR4; format: cell-based; details: GPR4
T3 construct: Human GPR4 is amplified from genomic DNA using primers GPR4F and GPR4R; expressed in transfected cells; host or cells: HEK293 (transient)
Method: (§2) Human GPR4 is amplified from genomic DNA using primers GPR4F and GPR4R (5′ CACC ATGGGCAACCACACGTGGGAGGGCTGC 3′ and 5′ TCATTGTGCTGGCGGCAGCATCTTCAGCTGCA 3′ respectively). The PCR reaction mixture contains 0.2 mM dNTPs, 1×PCR buffer containing 1.5 mM MgCl2, 0.5 Units Taq DNA polymerase, 40 pmol each primer and sterile water in a total volume of 50 μl. The template for this reaction is human genomic DNA (Promega, Southampton, UK). PCR is performed using a Biometra T3 Thermocycler using the following cycling conditions: Denaturation at 95° C. for 2 min followed by 35 cycles of denaturation at 95° C. for 15s, annealing at 60° C. for 15 s, and extension at 72° C. for 1 min. A final extension at 72° C. is performed for 7 min. The 1.1 kb PCR product is purified and cloned pcDNA3.1 DN5-His-TOPO (Invitrogen, Paisley, UK).

Human GPR4 [6] = biological target: T4, Human GPR4 (Homo sapiens, UniProt P46093, E51Q/F19H/F93P/Q349E); assay: cAMP formation assay, GPR4; format: cell-based
T4 construct: Human GPR4 is amplified from genomic DNA using primers GPR4F and GPR4R; expressed in transfected cells; host or cells: HEK293 (transient)
Method: as §2

[7] = tested on: forskolin-stimulated adenylyl cyclase; assay: Forskolin-stimulated adenylyl cyclase in other cell systems; format: cell-based
OGR1 [8] = biological target: T1, OGR1; assay: Cytoplasmic calcium transients (Fluo-3, fluorescence-imaging plate reader), CCL39 cells transfected with OGR1; format: cell-based; details: shift of extracellular pH from pH 7.6; mean+/-sem, N=3
Method: Method: Cytoplasmic calcium transients are recorded using the calcium indicator Fluo-3 and a fluorescence-imaging plate reader (Molecular Devices/BucherBiotech, Basel, Switzerland).
CCL39 cells transfected with OGR1 are loaded with the acetoxymethylester of the dye (2 μg/ml) for 1 h at 37° C. in full medium containing 5 mM probenicide to inhibit the multidrug resistance transporter. […] To identify receptor antagonists, test compounds are added during the last 15 minutes of this incubation. After transfer to the reader a baseline is recorded (Fb), and cells are then stimulated by addition of an appropriate amount of stronger buffer (20 mM HEPES, pH 6), inducing acidification.
Alternatively, test compounds are added at this stage to identify agonistic molecules. The fluorescence readout F is normalised calculating F′=(F−Fb)/Fb.
Target sequence in this assay (Q15743 whole entry T18I/I19T): as the sequence (Q15743 whole entry) above, with T18I, I19T counted along it

Human TDAG8 [9] = biological target: T5, Human TDAG8 (Homo sapiens, UniProt Q8IYL9, A43P/F130I/N97L/Q180E/W80T); assay: cAMP formation assay, TDAG8; format: cell-based; details: CCL39 cells stably expressing the receptor; mean+/-sem, N=6
T5 construct: His; expressed in transfected cells; host or cells: CCL39 (cAMP formation); CCL39 CRE-luc (luciferase reporter)
Method: as §1

Human TDAG8 [10] = biological target: T5, Human TDAG8; assay: cAMP luciferase reporter assay, TDAG8 in CCL39 CRE-luc cells; format: cell-based; details: CCL39 CRE-luc cells stably expressing the receptor; mean+/-sem, N=7
Method: as §1
Cells co-expressing TDAG8 and a cAMP luciferase reporter, as described in Example 8, are plated at 10-20,000 cells per well in white 96 well plates. The day before performing the assay the medium is changed for serum-free DMEM and the cells are incubated overnight at 37° C. in the presence of 5% CO2. […] 100 μl of the appropriate HBS buffer containing the to be tested compound (e.g. from any in-house or commercially available compound library) are then added on the cells. […] Agonists in the assay produce an increase in luminescence whereas antagonists produce a decrease in the luminescence. E.g. antagonists are characterised in the assay by a decrease in luminescence signal compared to the no compound control and e.g. in acidic pH buffer at pH 6.8 or pH 7.0 or at half-maximal activation of human TDAG8. […]

T5 sequence (Q8IYL9 whole entry A43P/W80T/N97L/F130I/Q180E): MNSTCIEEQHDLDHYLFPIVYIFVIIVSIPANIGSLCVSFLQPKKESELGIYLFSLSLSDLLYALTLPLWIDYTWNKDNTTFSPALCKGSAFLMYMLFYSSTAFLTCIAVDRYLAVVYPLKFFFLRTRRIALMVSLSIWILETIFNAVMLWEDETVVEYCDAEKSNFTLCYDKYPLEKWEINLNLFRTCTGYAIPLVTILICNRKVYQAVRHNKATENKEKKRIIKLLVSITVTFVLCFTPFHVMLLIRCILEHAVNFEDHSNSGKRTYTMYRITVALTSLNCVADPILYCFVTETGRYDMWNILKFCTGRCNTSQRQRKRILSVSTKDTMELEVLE
T4 sequence (P46093 whole entry F19H/E51Q/F93P/Q349E): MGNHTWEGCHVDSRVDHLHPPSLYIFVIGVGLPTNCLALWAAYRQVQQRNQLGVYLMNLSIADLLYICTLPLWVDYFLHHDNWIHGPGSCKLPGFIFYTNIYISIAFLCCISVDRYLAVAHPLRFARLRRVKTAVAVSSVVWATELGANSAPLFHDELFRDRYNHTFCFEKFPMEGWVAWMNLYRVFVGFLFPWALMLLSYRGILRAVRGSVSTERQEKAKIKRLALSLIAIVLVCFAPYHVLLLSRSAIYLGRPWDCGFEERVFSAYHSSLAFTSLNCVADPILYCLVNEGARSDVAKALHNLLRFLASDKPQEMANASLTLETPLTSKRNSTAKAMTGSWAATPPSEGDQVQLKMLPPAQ
T2 sequence (Q8IYL9 whole entry A43P/W80T/N97L/F130I/Q180E): as the sequence (Q8IYL9 whole entry A43P/W80T/N97L/F130I/Q180E) above
T3 sequence (P46093 whole entry F19H/E51Q/F93P/Q349E): as the sequence (P46093 whole entry F19H/E51Q/F93P/Q349E) above

Inhibition of OGR1-dependent IP formation (OGR1 [1]): strongly Inhibit
Compound: [Cu+2] [Cu^2+]
Effect on pH-stimulated IP formation ([2]; PTX pretreatment, or micromolar concentrations of copper ions): inhibited
Effect on thrombin-stimulated IP formation [3]: without effect

Compound: CCCCCCCCCCCCC/C=C/[C@@H](O)[C@@H](N)CO[C@@H]1O[C@H](CO)[C@H](O)[C@H](O)[C@H]1O [Psychosine]
Activation of cAMP formation on its own (Human TDAG8 [4]): does not activate cAMP formation on its own

Compound: CCCCCCCCCCCCC/C=C/[C@@H](O)[C@@H](N)COP(=O)([O-])OCC[N+](C)(C)C [SPC]
Effect on pH-dependent stimulation of IP formation (OGR1 [1]; CCL39 cells expressing OGR1): does not affect pH-dependent stimulation of IP formation
Stimulation of OGR1 (IP formation) (OGR1 [1]; CCL39 cells expressing OGR1): does not stimulate the receptor
Activation of cAMP formation on its own (Human GPR4 [5]): does not activate cAMP formation on its own
Effect on pH-dependent stimulation of cAMP formation (Human GPR4 [6]; GPR4): does not modulate pH-dependent stimulation
Effect on forskolin-stimulated adenylyl cyclase [7]: inhibiting forskolin-stimulated adenylyl cyclase

Inhibition of OGR1-dependent IP formation (OGR1 [1]): strongly Inhibit
Compound: [Zn+2] [Zn^2+]
Effect on thrombin-stimulated IP formation [3]: partial inhibition

Half-maximal activation of the receptor (IP formation) (OGR1 [1]; OGR1 expressed in CCL39 hamster fibroblasts, mean+/-sem, N=12, pH referenced to room temperature): 7.48+/−0.04 pH
Hill coefficient of activation (OGR1 [1]; OGR1 in CCL39 hamster fibroblasts, IP formation): > 2
Half-maximal activation of IP formation (OGR1 [1]; transiently transfected HEK cells, mean+/-sem, N=4): 7.38+/−0.04 pH
Half-maximal activation (intracellular calcium response) (OGR1 [8]): 7.20+/−0.04 pH
Half-maximal activation of cAMP formation by GPR4 (Human GPR4 [6]; transiently transfected HEK293 cells, mean+/-sem, N=6): 7.55+/−0.02 pH
Half-maximal activation of cAMP formation by TDAG8 (Human TDAG8 [9]): 7.15+/−0.02 pH
Half-maximal activation of luciferase induction by human TDAG8 (Human TDAG8 [10]): 7.28+/−0.02 pH
Compound: [H+] [protons]
Halfmaximal activation of IP formation ([2]; mean+/-sem, N=5): 7.46+/−0.01 pH

Compound: thrombin: bovine thrombin, activates endogenous receptors in CCL39 cells
pH modulation of the response to the receptor agonist (IP formation) ([3]; range of pH 7-8): not positively modulated
